{"source": "patent US10975385B2", "about": "“Methods of modulating stomata conductance and plant expression constructs for executing same” (The State of Israel, Ministry of Agriculture & Rural …, priority 2011, dated 2021)", "key": {"[1]": {"tested_on": "guard cells", "assay": "Nitric oxide production in guard cells of epidermal peels (DAF-2DA fluorescence)", "format": "cell-based, tomato", "details": "for effect on NO levels in guard cells: 100 mM sorbitol or 20 mM NAG with 100 mM Suc; for NO production and stomatal closure in ABA-deficient mutant: Sitiens epidermal peels, 100 mM Suc or 100 μM ABA", "description": "Detection of nitric oxide (NO) levels in stomata is performed as follows: Epidermal peels are prepared and incubated in MES buffer [25 mM MES-KOH, pH=6.15 and 10 mM KCl (MES, 2-(N-morpholino)-ethane sulfonic acid; Sigma-Aldrich] with or without 20 mM NAG, for 2.5 h under steady light, and then loaded with 60 μM NO indicator dye, DAF-2DA (4, 5-diaminofluorescein diacetate; Sigma-Aldrich), diluted in MES buffer with or without 20 mM N-acetyl glucosamine (NAG, Sigma-Aldrich) and left for an additional 50 min. Then, the peels are washed with MES 3 times and re-incubated for 30 min in the buffer (control, set as 100% fluorescence) or in 100 mM sorbitol, 100 mM sucrose and 20 mM NAG. The peels are then photographed under a microscope (see Materials and Methods, “Confocal microscopy imaging”). Three to four biological repeats containing 20-30 stomata each are included in each experiment and each experiment is repeated several times. Images are analyzed using the ImageJ software histogram tool to evaluate fluorescence intensity and the fit-ellipse tool to determine stomatal aperture. It is possible to use epidermal strips from different species, use different treatments solutions and different timings, all to our decision. Images are acquired using the OLYMPUS IX 81 (Japan) inverted laser scanning confocal microscope (FLUOVIEW 500) equipped with a 488-nm argon ion laser and a 60X1.0 NA PlanApo water immersion objective. Nitric oxide- DAF-2DA (4, 5-diaminofluorescein diacetate; Sigma-Aldrich) fluorescence is excited by 488-nm light and the emission is collected using a BA 505-525 filter. GFP is excited by 488-nm light and the emission is collected using a BA 505-525 filter. A BA 660 IF emission filter is used to observe chlorophyll autofluorescence. Confocal optical sections are obtained at 0.5-μm increments. The images are color-coded green for GFP and magenta for chlorophyll autofluorescence."}, "[2]": {"tested_on": "stomata (stomatal aperture)", "assay": "Stomatal aperture of intact leaves immersed in artificial apoplastic sap, measured on epidermal imprints", "format": "cell-based, tomato (Solanum lycopersicum cv. MP-1)", "details": "3 h", "description": "Stomatal aperture and density are determined using the rapid imprinting technique described by […] and Sack (2002). This approach allows to reliably score hundreds of stomata from each experiment, each of which is sampled at the same time. Light-bodied vinylpolysiloxane dental resin (Heraeus-Kulzer, Hanau, Germany) is attached to the abaxial leaf side and then removed as soon as it dries (1 min). The resin epidermal imprints are than covered with nail polish, which removed once it had dried out and serves as a mirror image of the resin imprint. The nail-polish imprints are put on glass cover slips and photographed under bright-field microscope. Stomata images are later analyzed to determine aperture size using the ImageJ software (World Wide Web (dot) rsb (dot) info (dot) nih (dot) gov/ij/) fit-ellipse tool or any other software that can process and analyze images. A microscopic ruler is used for the size calibration. Additional information can be obtained from the software such as stomata width, length, area, perimeter etc. To assess stomatal responses, leaflets are cut and immediately immerse in artificial xylem sap solution (AXS) (Wilkinson and Davies, 1997) containing 100 mM sucrose (Duchefa Biochemie) with or without 20 mM N-acetyl glucosamine (NAG, Sigma-Aldrich), 100 mM or 200 mM glucose (Duchefa Biochemie), 100 mM or 200 mM fructose (Sigma-Aldrich), 100 mM 2-deoxyglucose (Sigma-Aldrich), 10 mM or 100 mM mannose (Sigma-Aldrich), 100 mM sorbitol (Sigma-Aldrich) or 100 mM or 200 mM mannitol (Duchefa Biochemie). The sorbitol and mannitol treatments serve as non-metabolic osmotic controls. Imprints are taken 3 h after immersion and stomatal aperture is analyzed. Different plant species can be used as well as, AXS solutions, treatment solutions and different timings to our decision."}}}
{"smiles": "OC[C@@H](O)[C@@H](O)[C@H](O)[C@@H](O)CO", "note": "[sorbitol]", "values": [{"measurement": "effect on NO levels in guard cells", "setting": "[1]; WT epidermal peels, 30 min", "value": "had no effect on NO levels"}]}
{"smiles": "O=CC[C@@H](O)[C@H](O)[C@H](O)CO", "note": "[2-dG, 2-deoxyglucose]", "values": [{"measurement": "effect on stomatal aperture", "setting": "[2]; WT leaves, vs mannitol osmotic control", "value": "reduced stomatal aperture"}]}
{"smiles": "OC[C@H]1O[C@@](CO)(O[C@H]2O[C@H](CO)[C@@H](O)[C@H](O)[C@H]2O)[C@@H](O)[C@@H]1O", "note": "[Suc, sucrose]", "values": [{"measurement": "effect on guard-cell fluorescence of AtHXK1-expressing line", "setting": "[1]; HK4 epidermal peels, Suc added", "value": "even more intense fluorescence"}, {"measurement": "NO production and stomatal closure in ABA-deficient mutant", "setting": "[1]; 30 min", "value": "did not result in any increase in fluorescence or stomatal closure"}, {"measurement": "increase in guard-cell fluorescence (NO levels)", "setting": "[1]; WT epidermal peels, 100 mM, 30 min", "value": 3.5, "unit": "fold"}, {"measurement": "effect on stomatal aperture of AtHXK1-expressing plants", "setting": "[2]; HK4 leaves, 100 mM Suc", "value": "caused the stomata to close even further"}, {"measurement": "decrease of stomatal aperture size relative to sorbitol", "setting": "[2]; WT tomato leaflets, 100 mM Suc vs 100 mM sorbitol", "value": 29, "unit": "%"}]}
{"smiles": "CC(=O)N[C@H]1C(O)O[C@H](CO)[C@@H](O)[C@@H]1O", "note": "(stereo partly drawn) [NAG, N-acetyl glucosamine]", "values": [{"measurement": "time to resumption of NO production after washing out NAG", "setting": "[1]; NAG washed out with 100 mM Suc", "value": "less than 30 min"}, {"measurement": "effect on NO levels in guard cells", "setting": "[1]; WT epidermal peels, 30 min", "value": "prevented the production of NO"}, {"measurement": "effect on Suc-induced stomatal closure of AtHXK1-expressing plants", "setting": "[2]; HK4 leaves, 100 mM Suc with 20 mM NAG", "value": "abolished the closing effect of Suc"}, {"measurement": "effect on Suc-induced stomatal closure", "setting": "[2]; WT leaves, 100 mM Suc with 20 mM NAG", "value": "almost completely abolished the effect of Suc and prevented stomatal closure"}]}
{"smiles": "CC1=CC(=O)CC(C)(C)[C@@]1(O)/C=C/C(C)=C\\C(=O)O", "note": "[ABA, abscisic acid]", "values": [{"measurement": "NO production and stomatal closure in ABA-deficient mutant", "setting": "[1]; 30 min", "value": "did trigger the production of NO"}]}
